# Assay results as given in US11274332B2, “Methods of administering 3,4-diaminopyridine” (SERB SA, priority 2011, dated 2022).
# Experiment: Food-effect crossover study, adverse events after single 20 mg amifampridine phosphate in healthy subjects (Examples 10, 11)
# Type: in vivo
# Method: This was a randomized, open-label, 2-treatment, 2-period crossover study with 44 completed subjects to assess the safety, tolerability, and the effect of food on the relative bioavailability of a single dose of amifampridine phosphate.
# Safety was evaluated for all subjects who take at least one dose of 3,4-DAP. Safety was evaluated by recording the incidence of adverse events (AEs), physical examination, vital signs, concomitant medications, clinical laboratory assessments, and 12-lead electrocardiogram (ECG).
# Analysis for the following safety parameters was carried out on the Safety Population: AEs which included all AEs, AEs by severity, drug-related AEs, deaths, SAEs, AEs leading to study discontinuation, and most frequent AEs, standard clinical laboratory tests, vital signs, ECG measurements, routine physical examinations, and prior and concomitant medications. The cut-off for frequency of AEs reported was determined based on the data. No formal statistical testing was performed for the safety analyses; only descriptive statistics were provided. Appropriate descriptive statistics for the safety data were determined using SAS Version 9.2.
# AEs were coded according to the Medical Dictionary for Regulatory Activities (MedDRA; Version 13.0). […] The occurrence of AEs was assessed continuously from the time the subject signed the VID and consent. The reporting period for non-serious AEs was from the first dose to the final study visit. The investigator determined the severity of each event and the relationship of an AE to the IP and recorded it on the source documents and AE CRF. The nature, time of onset, duration, severity, and relationship to study drug was documented, including documentation of investigator assessment and review. All events were assessed to determine if the AE was serious.
# The Investigator determined the severity of each event and the event was recorded on the source documents and AE CRF. A coding of “mild” meant there was no limitation of usual activities, “moderate” meant there was some limitation of usual activities, “severe” meant there was an inability to carry out usual activities.
# The reporting period for AEs that met the criteria of an SAE began from the time of signing the VID and consent form through follow-up or early termination. […] Clinical Laboratory Assessments
structure (smiles),measurement,setting,value
"Nc1ccncc1N.O=P(O)(O)O [amifampridine phosphate, 3,4-diaminopyridine phosphate]","General Disorders and Administration Site Conditions Total, drug-related AE: events",Female N=16,2
same,"General Disorders and Administration Site Conditions Total, drug-related AE: subjects",Female N=16,2
same,"Headache, drug-related AE: % of subjects",Female N=16,19%
same,"Headache, drug-related AE: events",Female N=16,3
same,"Headache, drug-related AE: subjects",Female N=16,3
same,"Hypoaesthesia Facial, drug-related AE: % of subjects",Female N=16,(0%) [0]
same,"Hypoaesthesia Facial, drug-related AE: events",Female N=16,(0%) [0]
same,"Hypoaesthesia Facial, drug-related AE: subjects",Female N=16,0
same,"Hypoaesthesia Oral, drug-related AE: % of subjects",Female N=16,6%
same,"Hypoaesthesia Oral, drug-related AE: events",Female N=16,1
same,"Hypoaesthesia Oral, drug-related AE: subjects",Female N=16,1
same,"Hypoaesthesia, drug-related AE: % of subjects",Female N=16,6%
same,"Hypoaesthesia, drug-related AE: events",Female N=16,1
same,"Hypoaesthesia, drug-related AE: subjects",Female N=16,1
same,"Nausea, drug-related AE: % of subjects",Female N=16,13%
same,"Nausea, drug-related AE: events",Female N=16,2
same,"Nausea, drug-related AE: subjects",Female N=16,2
same,"Nervous System Disorders Total, drug-related AE: % of subjects",Female N=16,63%
same,"Nervous System Disorders Total, drug-related AE: events",Female N=16,31
same,"Nervous System Disorders Total, drug-related AE: subjects",Female N=16,10
same,"Paraesthesia Oral, drug-related AE: % of subjects",Female N=16,44%
same,"Paraesthesia Oral, drug-related AE: events",Female N=16,12
same,"Paraesthesia Oral, drug-related AE: subjects",Female N=16,7
same,"Paraesthesia, drug-related AE: % of subjects",Female N=16,38%
same,"Paraesthesia, drug-related AE: events",Female N=16,9
same,"Paraesthesia, drug-related AE: subjects",Female N=16,6
same,"Possibly or probably related AEs, Mild: % of subjects",Female N=16,75%
same,"Possibly or probably related AEs, Mild: events",Female N=16,41
same,"Possibly or probably related AEs, Mild: subjects",Female N=16,12
same,"Possibly or probably related AEs, Moderate: % of subjects",Female N=16,6%
same,"Possibly or probably related AEs, Moderate: events",Female N=16,1
same,"Possibly or probably related AEs, Moderate: subjects",Female N=16,1
same,"Possibly or probably related AEs, Severe: % of subjects",Female N=16,(0%) [0]
same,"Possibly or probably related AEs, Severe: events",Female N=16,(0%) [0]
same,"Possibly or probably related AEs, Severe: subjects",Female N=16,0
same,"Possibly or probably related AEs, Total: % of subjects",Female N=16,75%
same,"Possibly or probably related AEs, Total: events",Female N=16,42
same,"Possibly or probably related AEs, Total: subjects",Female N=16,12
same,Serious adverse events: % of subjects,Female N=16,(0%) [0]
same,Serious adverse events: events,Female N=16,(0%) [0]
same,Serious adverse events: subjects,Female N=16,0
same,"Skin and Subcutaneous Tissue Disorders Total, drug-related AE: % of subjects",Female N=16,(0%) [0]
same,"Skin and Subcutaneous Tissue Disorders Total, drug-related AE: events",Female N=16,(0%) [0]
same,"Skin and Subcutaneous Tissue Disorders Total, drug-related AE: subjects",Female N=16,0
same,"Vascular Disorders Total, drug-related AE: % of subjects",Female N=16,6%
same,"Vascular Disorders Total, drug-related AE: events",Female N=16,1
same,"Vascular Disorders Total, drug-related AE: subjects",Female N=16,1
same,"Abdominal Pain Upper, drug-related AE: % of subjects",Male N=31,3%
same,"Abdominal Pain Upper, drug-related AE: events",Male N=31,1
same,"Abdominal Pain Upper, drug-related AE: subjects",Male N=31,1
same,"Abdominal Pain, drug-related AE: % of subjects",Male N=31,3%
same,"Abdominal Pain, drug-related AE: events",Male N=31,1
same,"Abdominal Pain, drug-related AE: subjects",Male N=31,1
same,"Abdominal Tenderness, drug-related AE: % of subjects",Male N=31,(0%) [0]
same,"Abdominal Tenderness, drug-related AE: events",Male N=31,(0%) [0]
same,"Abdominal Tenderness, drug-related AE: subjects",Male N=31,0
same,"Acne, drug-related AE: % of subjects",Male N=31,3%
same,"Acne, drug-related AE: events",Male N=31,1
same,"Acne, drug-related AE: subjects",Male N=31,1
same,"All treatment emergent AEs, Mild: % of subjects",Male N=31,58%
same,"All treatment emergent AEs, Mild: events",Male N=31,57
same,"All treatment emergent AEs, Mild: subjects",Male N=31,18
same,"All treatment emergent AEs, Moderate: % of subjects",Male N=31,(0%) [0]
same,"All treatment emergent AEs, Moderate: events",Male N=31,(0%) [0]
same,"All treatment emergent AEs, Moderate: subjects",Male N=31,0
same,"All treatment emergent AEs, Severe: % of subjects",Male N=31,3%
same,"All treatment emergent AEs, Severe: events",Male N=31,1
same,"All treatment emergent AEs, Severe: subjects",Male N=31,1
same,"All treatment emergent AEs, Total: events",Male N=31,58
same,"All treatment emergent AEs, Total: subjects",Male N=31,19
same,"Constipation, drug-related AE: % of subjects",Male N=31,(0%) [0]
same,"Constipation, drug-related AE: events",Male N=31,(0%) [0]
same,"Constipation, drug-related AE: subjects",Male N=31,0
same,"Diarrhoea, drug-related AE: % of subjects",Male N=31,(0%) [0]
same,"Diarrhoea, drug-related AE: events",Male N=31,(0%) [0]
same,"Diarrhoea, drug-related AE: subjects",Male N=31,0
same,Discontinued due to adverse events: % of subjects,Male N=31,3%
same,Discontinued due to adverse events: events,Male N=31,1
same,Discontinued due to adverse events: subjects,Male N=31,1
same,"Dizziness, drug-related AE: % of subjects",Male N=31,3%
same,"Dizziness, drug-related AE: events",Male N=31,2
same,"Dizziness, drug-related AE: subjects",Male N=31,1
same,"Dysgeusia, drug-related AE: % of subjects",Male N=31,6%
same,"Dysgeusia, drug-related AE: events",Male N=31,3
same,"Dysgeusia, drug-related AE: subjects",Male N=31,2
same,"Fatigue, drug-related AE: % of subjects",Male N=31,6%
same,"Fatigue, drug-related AE: events",Male N=31,2
same,"Fatigue, drug-related AE: subjects",Male N=31,2
same,"Feeling Hot, drug-related AE: % of subjects",Male N=31,3%
same,"Feeling Hot, drug-related AE: events",Male N=31,1
same,"Feeling Hot, drug-related AE: subjects",Male N=31,1
same,"Flushing, drug-related AE: % of subjects",Male N=31,(0%) [0]
same,"Flushing, drug-related AE: events",Male N=31,(0%) [0]
same,"Flushing, drug-related AE: subjects",Male N=31,0
same,"Gastrointestinal Disorders Total, drug-related AE: % of subjects",Male N=31,13%
same,"Gastrointestinal Disorders Total, drug-related AE: events",Male N=31,4
same,"Gastrointestinal Disorders Total, drug-related AE: subjects",Male N=31,4
same,"General Disorders and Administration Site Conditions Total, drug-related AE: % of subjects",Male N=31,10%
same,"General Disorders and Administration Site Conditions Total, drug-related AE: events",Male N=31,3
same,"General Disorders and Administration Site Conditions Total, drug-related AE: subjects",Male N=31,3
same,"Headache, drug-related AE: % of subjects",Male N=31,6%
same,"Headache, drug-related AE: events",Male N=31,2
same,"Headache, drug-related AE: subjects",Male N=31,2
same,"Hypoaesthesia Facial, drug-related AE: % of subjects",Male N=31,3%
same,"Hypoaesthesia Facial, drug-related AE: events",Male N=31,1
same,"Hypoaesthesia Facial, drug-related AE: subjects",Male N=31,1
same,"Hypoaesthesia Oral, drug-related AE: % of subjects",Male N=31,13%
same,"Hypoaesthesia Oral, drug-related AE: events",Male N=31,5
same,"Hypoaesthesia Oral, drug-related AE: subjects",Male N=31,4
same,"Hypoaesthesia, drug-related AE: % of subjects",Male N=31,3%
same,"Hypoaesthesia, drug-related AE: events",Male N=31,1
same,"Hypoaesthesia, drug-related AE: subjects",Male N=31,1
same,"Nausea, drug-related AE: % of subjects",Male N=31,6%
same,"Nausea, drug-related AE: events",Male N=31,2
same,"Nausea, drug-related AE: subjects",Male N=31,2
same,"Nervous System Disorders Total, drug-related AE: % of subjects",Male N=31,55%
same,"Nervous System Disorders Total, drug-related AE: events",Male N=31,43
same,"Nervous System Disorders Total, drug-related AE: subjects",Male N=31,17
same,"Paraesthesia Oral, drug-related AE: % of subjects",Male N=31,42%
same,"Paraesthesia Oral, drug-related AE: events",Male N=31,18
same,"Paraesthesia Oral, drug-related AE: subjects",Male N=31,13
same,"Paraesthesia, drug-related AE: % of subjects",Male N=31,19%
same,"Paraesthesia, drug-related AE: events",Male N=31,11
